Test results published in patent publication US11459338B2, “Heterocyclic compounds as PRMT5 inhibitors” (JUBILANT EPISCRIBE LLC, priority 2018, dated 2022).

Assays:
PRMT5/MEP50 = target: T1, PRMT5/MEP50 (Homo sapiens, UniProt O14744); assay: PRMT5/MEP50 enzyme assay on peptide substrates (3H-SAM Flashplate); format: biochemical; conditions: PRMT5/MEP50 10 nM, H4 1-15aa peptide 100 nM, 3H-SAM 1 μM
T1 construct: Full-length human PRMT5 (NP_006100)
Excerpt: General materials like S-adenocylmethionine (SAM), S-adenosylhomocysteine (SAH), Tris-HCl, DTT, […] (BSA) and Tween-20 were purchased from Sigma-Aldrich. 3H-SAM and 384-well streptavidin Flashplates were purchased from Perkin Elmer. Substrates that were used were Peptide representative of human Histone 4 residues 1-15 which was purchased from Rockland antibodies and assays.
PRMT5/MEP50 Enzyme assay on Peptide Substrates.
The assays were all performed in a buffer consisting of 50 mMTris-HCl, pH 8, 1 mM DTT, 0.01% BSA, 0.01% Tween-20, prepared on the day of use. Test compounds were diluted 3-fold in assay buffer (final DMSO concentration of 1%) and added into a 384-well OptiPlate (PerkinElmer, #6007290). A cocktail (10 μL) of PRMT5/MEP50 enzyme and the peptide was added to the wells. The compounds were allowed to incubate with PRMT5/MEP50 for 30 min at room temperature, then 5 μL of ^3H-SAM was added to initiate the reaction. The final concentrations of the components were as follows: PRMT5/MEP50-10 nM, H4, 1-15aa peptide-100 nM, ^3H-SAM-1 μM. The assays were stopped by the addition of 1 mM SAH. 25 μL of the reaction from the 384-well OptiPlate was then transferred to a 384-well Flashplate and the biotinylated peptides were allowed to bind to the streptavidin surface for at least 1 h, before being washed twice with 50 mMTris-HCl, pH 8, 0.1% Tween-20. The plates were then read in a PerkinElmer Topcount plate reader to measure the quantity of ^3H-labeled peptide bound to the Flashplate surface measured as disintegrations per minute (dpm), also referred to as counts per minute (cpm).
The IC50 values were calculated using a 4-parameter variable slope fit algorithm (cpm—counts per minute, cmpd—signal in assay well, and cpmmax and cpmmin mare the respective minimum and maximum signal controls).

Z-138 cells = assay: Z-138 long term proliferation assay (Cell Titer Glo); format: cell-based; conditions: Homo sapiens, 192 h; Z-138 cells, cell viability, day 8; read-out: PRMT5 Z138 GI50 Day 8 μM
Procedure: A compound source plate was prepared by performing ten-point 3-fold dilution in DMSO, such that the final top concentration of the compound was 10 μM, and DMSO was 0.3%. The total volume of compounds added was 20 μL. The cells were incubated for 96 h at 37° C., 5% CO2. […] The cells were re-treated with the compounds and incubated for an additional four days. Cell viability was measured on both day 4 and day 8, by adding 25 μL of Cell Titer Glo reagent to an equal volume of cell suspension. Luminescence was read on a PerkinElmer Victor3 multiplate reader. The concentration of compound inhibiting cell viability by 50% was determined using a 4-parameter, variable slope fit of the normalized dose response curves.

T1 sequence (O14744 whole entry): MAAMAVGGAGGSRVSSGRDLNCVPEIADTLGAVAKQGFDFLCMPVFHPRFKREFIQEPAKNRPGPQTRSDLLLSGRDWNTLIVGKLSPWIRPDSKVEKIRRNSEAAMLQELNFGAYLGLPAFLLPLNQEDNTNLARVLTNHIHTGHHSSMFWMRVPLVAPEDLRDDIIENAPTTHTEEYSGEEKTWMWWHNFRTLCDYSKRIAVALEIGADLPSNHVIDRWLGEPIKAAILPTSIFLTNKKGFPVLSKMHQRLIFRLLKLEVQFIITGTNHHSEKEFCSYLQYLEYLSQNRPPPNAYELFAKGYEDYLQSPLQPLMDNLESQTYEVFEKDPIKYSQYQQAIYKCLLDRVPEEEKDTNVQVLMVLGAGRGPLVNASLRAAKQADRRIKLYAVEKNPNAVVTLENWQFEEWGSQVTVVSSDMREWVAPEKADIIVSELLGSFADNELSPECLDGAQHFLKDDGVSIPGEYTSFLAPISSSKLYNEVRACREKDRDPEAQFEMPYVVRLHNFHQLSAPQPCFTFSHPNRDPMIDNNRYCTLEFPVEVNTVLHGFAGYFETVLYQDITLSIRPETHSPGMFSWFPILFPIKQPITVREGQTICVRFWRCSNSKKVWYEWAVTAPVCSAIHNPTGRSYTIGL
T1 sequence (Q9BQA1 whole entry partner): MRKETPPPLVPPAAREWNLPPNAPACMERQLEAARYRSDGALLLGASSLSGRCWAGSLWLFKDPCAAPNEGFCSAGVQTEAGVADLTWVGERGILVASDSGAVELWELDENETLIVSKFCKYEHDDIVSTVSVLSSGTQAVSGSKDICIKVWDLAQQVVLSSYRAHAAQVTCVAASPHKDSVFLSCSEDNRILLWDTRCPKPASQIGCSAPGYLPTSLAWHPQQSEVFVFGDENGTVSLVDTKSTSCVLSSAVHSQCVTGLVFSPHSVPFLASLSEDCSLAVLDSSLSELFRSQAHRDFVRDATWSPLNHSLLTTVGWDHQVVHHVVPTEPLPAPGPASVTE

N#Cc1ccc(-c2cn3cc(C(=O)NC[C@H](O)CN4CCc5ccccc5C4)nc3cn2)cc1 [Example 74, (S)-6-(4-cyanophenyl)-N-(3-(3,4-dihydroisoquinolin-2(1H)-yl)-2-hydroxypropyl)imidazo[1,2-a]pyrazine-2-carboxamide]
IC50 (PRMT5/MEP50): 0.01 to 1 µM
GI50 (Z-138 cells): 0.01 to 1 µM

Cn1ccc(-c2ccc3nc(C(=O)NC[C@H](O)CN4CCc5ccccc5C4)cn3c2)cc1=O [Example 35, (S)—N-(3-(3,4-dihydroisoquinolin-2(1H)-yl)-2-hydroxypropyl)-6-(1-methyl-2-oxo-1,2-dihydropyridin-4-yl)imidazo[1,2-a]pyridine-2-carboxamide]
IC50 (PRMT5/MEP50): 0.01 to 1 µM
GI50 (Z-138 cells): 0.01 to 1 µM

NS(=O)(=O)c1ccc2nc(C(=O)NC[C@H](O)CN3CCc4ccccc4C3)cn2c1 [Example 40, (S)—N-(3-(3,4-dihydroisoquinolin-2(1H)-yl)-2-hydroxypropyl)-6-sulfamoylimidazo[1,2-a]pyridine-2-carboxamide]
IC50 (PRMT5/MEP50): 1 to 5 µM
GI50 (Z-138 cells): > 5 µM

O=C(NC[C@H](O)CN1CCc2ccccc2C1)c1cn2cc(-c3ccc(Cl)cn3)ccc2n1 [Example 33, (S)-6-(5-chloropyridin-2-yl)-N-(3-(3,4-dihydroisoquinolin-2(1H)-yl)-2-hydroxypropyl)imidazo[1,2-a]pyridine-2-carboxamide]
IC50 (PRMT5/MEP50): 0.01 to 1 µM
GI50 (Z-138 cells): 0.01 to 1 µM

CNC(=O)c1ccc2nc(C(=O)NC[C@H](O)CN3CCc4ccccc4C3)cn2c1 [Example 38, (S)—N2-(3-(3,4-dihydroisoquinolin-2(1H)-yl)-2-hydroxypropyl)-N6-methylimidazo[1,2-a]pyridine-2,6-dicarboxamide]
IC50 (PRMT5/MEP50): 0.01 to 1 µM
GI50 (Z-138 cells): 0.01 to 1 µM

Cn1ccc(-c2cnc3nc(C(=O)NC[C@H](O)CN4CCc5ccccc5C4)cn3c2)cc1=O [Example 44, (S)—N-(3-(3,4-dihydroisoquinolin-2(1H)-yl)-2-hydroxypropyl)-6-(1-methyl-2-oxo-1,2-dihydropyridin-4-yl)imidazo[1,2-a]pyrimidine-2-carboxamide]
IC50 (PRMT5/MEP50): 0.01 to 1 µM
GI50 (Z-138 cells): 0.01 to 1 µM

O=C(NC[C@H](O)CN1CCc2ccccc2C1)c1cn2cc(N3CC(F)(F)C3)ccc2n1 [Example 59, (S)-6-(3,3-difluoroazetidin-1-yl)-N-(3-(3,4-dihydroisoquinolin-2(1H)-yl)-2-hydroxypropyl)imidazo[1,2-a]pyridine-2-carboxamide]
IC50 (PRMT5/MEP50): 1 to 5 µM
GI50 (Z-138 cells): 1 to 5 µM

O=C(NC[C@H](O)CN1CCc2ccccc2C1)c1cn2nc(C(F)(F)F)ccc2n1 [Example 50, (S)—N-(3-(3,4-dihydroisoquinolin-2(1H)-yl)-2-hydroxypropyl)-6-(trifluoromethyl)imidazo[1,2-b]pyridazine-2-carboxamide]
IC50 (PRMT5/MEP50): 1 to 5 µM
GI50 (Z-138 cells): 1 to 5 µM

CC(=O)N1CCC(c2ccc3nc(C(=O)NC[C@H](O)CN4CCc5ccccc5C4)cn3n2)CC1 [Example 49, (S)-6-(1-acetylpiperidin-4-yl)-N-(3-(3,4-dihydroisoquinolin-2(1H)-yl)-2-hydroxypropyl)imidazo[1,2-b]pyridazine-2-carboxamide]
IC50 (PRMT5/MEP50): 0.01 to 1 µM
GI50 (Z-138 cells): 0.01 to 1 µM

O=C(NC[C@H](O)[C@@H](O)CN1CCc2ccccc2C1)c1cn2c(n1)CCC(C(F)(F)F)C2 (stereo partly drawn) [Example 117, N-((2S,3S)-4-(3,4-dihydroisoquinolin-2(1H)-yl)-2,3-dihydroxybutyl)-6-(trifluoromethyl)-5,6,7,8-tetrahydroimidazo[1,2-a]pyridine-2-carboxamide]
IC50 (PRMT5/MEP50): 0.01 to 1 µM
GI50 (Z-138 cells): 0.01 to 1 µM

CN(C[C@H](O)CN1CCc2ccccc2C1)C(=O)c1cn2cc(-c3ccc(C#N)cc3)ncc2n1 [Example 95, (R)-6-(4-cyanophenyl)-N-(3-(3,4-dihydroisoquinolin-2(1H)-yl)-2-hydroxypropyl)-N-methylimidazo[1,2-a]pyrazine-2-carboxamide]
IC50 (PRMT5/MEP50): 0.01 to 1 µM
GI50 (Z-138 cells): 0.01 to 1 µM
